Laboratory results from PubChem BioAssay (NCI).
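96-well plates; 48 h exposure; 5 concentrations. Endpoints by linear interpolation between flanking doses. Not reached: highest tested concentration assigned. Abbreviation: GI50, concentration required for 50% inhibition of growth. The concentration for full growth arrest is given as TGI.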

Assays:
Experiment in all cases: DTP human tumour cell line panel, 48 h
BT-549 breast = test system: BT-549 breast
LOX IMVI melanoma = test system: LOX IMVI melanoma
HL-60(TB) leukemia = test system: HL-60(TB) leukemia
NCI-H460 lung = test system: NCI-H460 lung
NCI/ADR-RES ovarian = test system: NCI/ADR-RES ovarian
DU-145 prostate = test system: DU-145 prostate
U251 CNS = test system: U251 CNS
HS 578T breast = test system: HS 578T breast
KM12 colon = test system: KM12 colon
OVCAR-5 ovarian = test system: OVCAR-5 ovarian
HCT-15 colon = test system: HCT-15 colon
SW-620 colon = test system: SW-620 colon
MOLT-4 leukemia = test system: MOLT-4 leukemia
A498 renal = test system: A498 renal
MDA-MB-468 breast = test system: MDA-MB-468 breast
HOP-92 NSCLC = test system: HOP-92 NSCLC
UACC-257 melanoma = test system: UACC-257 melanoma
SK-MEL-5 melanoma = test system: SK-MEL-5 melanoma
EKVX NSCLC = test system: EKVX NSCLC
RPMI-8226 leukemia = test system: RPMI-8226 leukemia
UO-31 renal = test system: UO-31 renal
OVCAR-8 ovarian = test system: OVCAR-8 ovarian
HCC-2998 colon = test system: HCC-2998 colon
SN12C renal = test system: SN12C renal
PC-3 prostate = test system: PC-3 prostate
MDA-MB-231 breast = test system: MDA-MB-231 breast
MALME-3M melanoma = test system: MALME-3M melanoma
NCI-H226 lung = test system: NCI-H226 lung
SF-268 CNS = test system: SF-268 CNS
OVCAR-4 ovarian = test system: OVCAR-4 ovarian
ACHN renal = test system: ACHN renal
SF-295 CNS = test system: SF-295 CNS
HT29 colon = test system: HT29 colon
A549 NSCLC = test system: A549 NSCLC
TK-10 renal = test system: TK-10 renal
MCF7 breast = test system: MCF7 breast
SNB-75 CNS = test system: SNB-75 CNS
HOP-62 NSCLC = test system: HOP-62 NSCLC
CAKI-1 renal = test system: CAKI-1 renal
M14 melanoma = test system: M14 melanoma
NCI-H522 lung = test system: NCI-H522 lung
786-0 renal = test system: 786-0 renal
CCRF-CEM leukemia = test system: CCRF-CEM leukemia
SK-OV-3 ovarian = test system: SK-OV-3 ovarian
IGROV1 ovarian = test system: IGROV1 ovarian
HCT-116 colon = test system: HCT-116 colon
MDA-MB-435 = test system: MDA-MB-435
UACC-62 melanoma = test system: UACC-62 melanoma
SK-MEL-28 melanoma = test system: SK-MEL-28 melanoma
SF-539 CNS = test system: SF-539 CNS
T-47D breast = test system: T-47D breast
SNB-19 CNS = test system: SNB-19 CNS
OVCAR-3 ovarian = test system: OVCAR-3 ovarian
K-562 leukemia = test system: K-562 leukemia
SK-MEL-2 melanoma = test system: SK-MEL-2 melanoma
RXF 393 renal = test system: RXF 393 renal
COLO 205 colon = test system: COLO 205 colon
NCI-H23 lung = test system: NCI-H23 lung

## Cc1ccc2nc(-c3ccc(-c4nnc(SCC(=O)Nc5ccc(Cl)cc5)o4)cc3)[nH]c2c1
BT-549 breast
  GI50: 16.4 µM
  TGI: 32.4 µM
LOX IMVI melanoma
  GI50: 2170 nM
  TGI: 5.64 µM
HL-60(TB) leukemia
  GI50: 18.5 µM
  TGI: > 100 µM
NCI-H460 lung
  GI50: 3.67 µM
  TGI: 15.8 µM
NCI/ADR-RES ovarian
  GI50: 4.13 µM
  TGI: 14.6 µM
DU-145 prostate
  GI50: 7.92 µM
  TGI: 47.7 µM
U251 CNS
  GI50: 3.23 µM
  TGI: 14.2 µM
HS 578T breast
  GI50: 10.2 µM
  TGI: 37.3 µM
KM12 colon
  GI50: 13.3 µM
  TGI: 39 µM
OVCAR-5 ovarian
  GI50: 15.4 µM
  TGI: 38.3 µM
HCT-15 colon
  GI50: 7.87 µM
  TGI: 21.2 µM
SW-620 colon
  GI50: 3.73 µM
  TGI: 19.5 µM
MOLT-4 leukemia
  GI50: 7.02 µM
  TGI: 75 µM
A498 renal
  GI50: 16.3 µM
  TGI: 31.4 µM
MDA-MB-468 breast
  GI50: 4.99 µM
  TGI: 17.6 µM
HOP-92 NSCLC
  GI50: 5.99 µM
  TGI: 24.4 µM
UACC-257 melanoma
  GI50: 15.2 µM
  TGI: 31.5 µM
SK-MEL-5 melanoma
  GI50: 12.3 µM
  TGI: 26.4 µM
EKVX NSCLC
  GI50: 6.56 µM
  TGI: 21.5 µM
RPMI-8226 leukemia
  GI50: 9.08 µM
  TGI: > 100 µM
UO-31 renal
  GI50: 10.6 µM
  TGI: 22.7 µM
OVCAR-8 ovarian
  GI50: 4.84 µM
  TGI: 16.9 µM
HCC-2998 colon
  GI50: 10.6 µM
  TGI: 23.7 µM
SN12C renal
  GI50: 4.21 µM
  TGI: 15.8 µM
PC-3 prostate
  GI50: 3.73 µM
  TGI: 20.5 µM
MDA-MB-231 breast
  GI50: 4.37 µM
  TGI: 16 µM
MALME-3M melanoma
  GI50: 10.4 µM
  TGI: 22.2 µM
NCI-H226 lung
  GI50: 2960 nM
  TGI: 9.92 µM
SF-268 CNS
  GI50: 15.7 µM
  TGI: 40.3 µM
OVCAR-4 ovarian
  GI50: 8.99 µM
  TGI: 28.7 µM
ACHN renal
  GI50: 4 µM
  TGI: 15.3 µM
SF-295 CNS
  GI50: 3.25 µM
  TGI: 12.4 µM
HT29 colon
  GI50: 4.73 µM
  TGI: 19.3 µM
A549 NSCLC
  GI50: 3.09 µM
  TGI: 12.5 µM
TK-10 renal
  GI50: 6.8 µM
  TGI: 20.6 µM
MCF7 breast
  GI50: 4 µM
  TGI: 16.7 µM
SNB-75 CNS
  GI50: 10.5 µM
  TGI: 23.9 µM
HOP-62 NSCLC
  GI50: 5.43 µM
  TGI: 23.5 µM
CAKI-1 renal
  GI50: 3.59 µM
  TGI: 15.9 µM
M14 melanoma
  GI50: 5.75 µM
  TGI: 25.4 µM
NCI-H522 lung
  GI50: 10.2 µM
  TGI: 24.9 µM
786-0 renal
  GI50: 3.05 µM
  TGI: 10.7 µM
CCRF-CEM leukemia
  GI50: 5.91 µM
  TGI: > 100 µM
SK-OV-3 ovarian
  GI50: 7.48 µM
  TGI: 25.4 µM
IGROV1 ovarian
  GI50: 5.9 µM
  TGI: 19 µM
HCT-116 colon
  GI50: 3.01 µM
  TGI: 15.2 µM
MDA-MB-435
  GI50: 6.5 µM
  TGI: 20.2 µM
UACC-62 melanoma
  GI50: 10.1 µM
  TGI: 21.8 µM
SK-MEL-28 melanoma
  GI50: 7.41 µM
  TGI: 20.2 µM
SF-539 CNS
  GI50: 10.9 µM
  TGI: 23.1 µM
T-47D breast
  GI50: 18.1 µM
  TGI: 69.7 µM
SNB-19 CNS
  GI50: 6.93 µM
  TGI: 23.8 µM
OVCAR-3 ovarian
  GI50: 7.37 µM
  TGI: 22.4 µM
K-562 leukemia
  GI50: 3.88 µM
  TGI: > 100 µM
SK-MEL-2 melanoma
  GI50: 15.5 µM
  TGI: 33.4 µM
RXF 393 renal
  GI50: 4.41 µM
  TGI: 16.5 µM
COLO 205 colon
  GI50: 9.86 µM
  TGI: 30.8 µM
NCI-H23 lung
  GI50: 4.37 µM
  TGI: 16.6 µM
